One experiment addresses T1, human M4 receptor (Homo sapiens, UniProt P08173).
T1 construct: expressed in transfected cells
T1 sequence (P08173 1-479): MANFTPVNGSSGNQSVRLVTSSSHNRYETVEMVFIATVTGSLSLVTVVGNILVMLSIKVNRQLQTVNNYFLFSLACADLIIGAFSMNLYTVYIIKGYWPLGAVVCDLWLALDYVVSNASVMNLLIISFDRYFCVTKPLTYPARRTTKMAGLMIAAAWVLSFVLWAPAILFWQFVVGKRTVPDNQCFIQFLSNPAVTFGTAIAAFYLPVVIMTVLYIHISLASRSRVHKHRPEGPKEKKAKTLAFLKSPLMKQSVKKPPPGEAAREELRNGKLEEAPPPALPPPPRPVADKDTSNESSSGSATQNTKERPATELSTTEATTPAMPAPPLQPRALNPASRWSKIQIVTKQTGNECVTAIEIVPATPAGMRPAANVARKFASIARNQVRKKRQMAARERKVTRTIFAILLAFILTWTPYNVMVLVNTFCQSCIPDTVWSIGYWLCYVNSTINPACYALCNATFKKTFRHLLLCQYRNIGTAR
As to the kind of experiment: SPA GTP (GTPgS) binding curve shift assay, M4. It is filed as biochemical. As for the experimental part:
Membranes were prepared for GTPgS binding assays from CHO-K1 cells stably expressing human M2 or human M4 receptors. Cells were grown in 5-layer cell culture flasks. Cells were washed with 50 mL of PBS and then dissociated with 0.05% trypsin. Dissociated cells were then collected by centrifugation at 650×g for 8 min at 4° C. Pellets were rewashed in PBS by centrifugation and resuspended in 30 mL of 20 mM HEPES, 10 mM EDTA, pH 7.4. After sitting on ice for 30 min, membranes were collected by centrifugation at 50000×g for 15 min at 4° C., resuspended in 30 mL of 20 mM HEPES, 0.1 mM EDTA, pH 7.4, and collected again by centrifugation. Pellets were then washed twice by centrifugation in 30 mL of 20 mM HEPES, pH 7.4, and stored at −80° C. until the day of the assay. On the day of the assay, pellets were thawed on ice and resuspended in 1 mL of 20 mM HEPES, pH 7.4, 10 mM MgCl2, and 100 mM NaCl using Dounce homogenization.
According to Promega guidelines, membrane protein concentration was determined by BCA protein assay (Promega, Madison, WI).
On the day of the assay, serial dilutions of test PAM compounds were brought up in assay buffer (20 mM HEPES, 10 mM MgCl2; see Table 4 for NaCl concentrations) at four times the final assay concentration. […] of membrane homogenates (containing […] of membrane protein) were prepared in assay buffer supplemented with GDP at 4× final assay concentration (see Table 4 for GDP concentrations) and dispensed into 96 well polypropylene, U-bottom Greiner plates. Membrane plates were incubated for 10 min at room temperature with gentle shaking. Then, 25 μL of test compounds were added to assay plates. Plates were then incubated, with shaking, for an additional 10-15 min. Then, 25 μL of diluted agonists serially diluted in assay buffer at 4× final assay concentration was added to assay plates. Plates were then incubated, with shaking, for an additional 10-15 min. Next, […] of 0.4 nM ^35S-GTP (Perkin Elmer, Waltham, MA) in assay buffer was added to assay mixtures. The binding reaction was left on the shaker for 1 h at room temperature. Membranes in assay reactions were then transferred to GF/C filter plates (UniFilter, Perkin Elmer) and washed three times using FilterMate Harvester (Perkin Elmer) with cold assay buffer containing no GDP. Filter plates were then dried at 40° C. overnight, and […] of Beta Plate Scintillation liquid was added. Plates were top and bottom sealed before being read on the TopCount scintillation counter (Perkin Elmer, Waltham, MA).
(§1) Raw data for all assays was transmitted directly from plate readers into the Beacon database for processing. All assay plates contained positive and negative control wells for data normalization and scaling. […] All control wells contained DMSO at a final assay concentration that matched the test compound wells.
For GTPgS assays, the negative control wells were defined as 0% response. The highest response in a plate was scaled to 1, representing 100% response. Data from test compound wells was scaled to these controls and are reported as % control values. This was done to allow for subsequent GraphPad cooperativity analysis, setting the maximal response at no more than 1.

Another experiment concerns the target T2, human M5 receptor (Homo sapiens, UniProt P08912).
T2 construct: expressed in transfected cells
T2 sequence (P08912 1-532): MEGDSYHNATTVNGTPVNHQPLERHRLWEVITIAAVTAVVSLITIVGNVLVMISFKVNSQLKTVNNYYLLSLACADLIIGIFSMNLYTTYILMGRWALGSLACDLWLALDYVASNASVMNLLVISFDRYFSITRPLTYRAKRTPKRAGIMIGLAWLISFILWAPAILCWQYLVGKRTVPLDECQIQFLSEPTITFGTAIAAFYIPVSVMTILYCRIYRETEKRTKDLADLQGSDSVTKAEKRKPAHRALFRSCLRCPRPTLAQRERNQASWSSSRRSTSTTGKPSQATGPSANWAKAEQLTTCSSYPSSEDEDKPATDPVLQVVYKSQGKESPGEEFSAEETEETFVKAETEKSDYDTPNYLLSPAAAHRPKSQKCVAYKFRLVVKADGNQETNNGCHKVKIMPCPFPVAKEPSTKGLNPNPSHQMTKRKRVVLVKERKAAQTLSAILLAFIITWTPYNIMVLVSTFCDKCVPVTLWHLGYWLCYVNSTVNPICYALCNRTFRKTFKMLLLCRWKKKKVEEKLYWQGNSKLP
Put plainly: HTRF IP-One curve shift assay, M5. The format is cell-based. Conditions: M5. As for the experimental part:
HTRF IP-One assays were performed using frozen cell aliquots prepared from CHO-K1 cell lines stably expressing human M1, M3, or M5 receptors. Cells were frozen following typical cell freezing protocols. […] Dissociated cells were quenched in full media and collected by centrifugation at 290×g for 5 min. […] 1 mL aliquots of cells were dispensed into cryovial tubes and frozen in a controlled rate cryo-freezer container at −80° C. Cells were stored at −80° C. (or in liquid nitrogen if stored for at least six months) until the day of the assay.
On the day before the assay, frozen cells were rapidly thawed in a 37° C. water bath, brought up in 20 mL of full media, and collected via centrifugation at 290×g for 5 min. […] Next, […] of cells (10,000 cells/well) were dispensed into 384-well coming plates in triplicate. Cells were incubated overnight in a 37° C., 5% CO2 cell incubator.
Then, 2 μL of test compounds were added to the cells and incubated for 10 min at 37° C. in a 5% CO2 cell incubator. Next, 2 μL of diluted agonists serially diluted in assay buffer at 7× final assay concentration was added to assay plates. Finally, assay plates were incubated for two hours at 37° C. in a 5% CO2 cell incubator.
Six μL of IP-1 detection reagents (IP-One Gq HTRF kit, Cisbio Cat #62IPAPEJ) were dispensed to the cells. First, the plates were incubated for two hours at room temperature (IP-One detection reagents were made according to Cisbio protocol). Then, plates were read on an Envision plate reader following the Cisbio guidelines.
as §1
Counts from the standard curve wells were used to generate a sigmoidal standard curve, which was used to transform the raw counts from each well on the plate (scaling control wells and compound wells) into a pmol/well IP1 value.
(In general: TR-FRET usually uses a lanthanide donor and a delayed reading to cut background.)

Read-outs that look alike come from different tables or passages of the source.

What is called Emax is the greatest response seen or fitted, relative to the assay's reference. On to `CC(=O)OCC[N+](C)(C)C` [acetylcholine, reference compound], for which the maximal effect (Emax) on human M4 receptor (MK-4710 concentration 0 nM) was found to be 67.6%; at human M5 receptor (Emraclidine concentration 41.2 nM, read-out: Emax), 77.7%; at human M5 receptor (MK-4710 concentration 0 nM), 71.2%; at human M5 receptor (MK-4710 concentration 1110 nM, read-out: Emax), 78.1%; on human M5 receptor (MK-4710 concentration 3330 nM, read-out: Emax) it was 78.8%. Besides, the Emax at […] worked out at 76.8% at human M4 receptor (MK-4710 concentration […]); 72.3% at human M5 receptor (Emraclidine concentration […], read-out: Emax); 77.7% at human M5 receptor (MK-4710 concentration […], read-out: Emax).

For the origin of these results see US20250228832A1, “METHODS FOR TREATING DISORDERS AMELIORATED BY MUSCARINIC RECEPTOR ACTIVATION” (KARUNA THERAPEUTICS, INC., priority 2022, published 2025).
